Measured values as given in patent US4579730A (Hadassah Medical Organization, priority 1983, dated 1986).

How the values were obtained:
[1] = Function of sodium cholate as bile acid carrier of insulin and protease inhibitor agent
diabetic dog = assay: Glucose levels in a diabetic dog after administration of insulin (oral enterocoated capsule; intramuscular comparison); type: in vivo; conditions: 0.5 u/kg intramuscular injection
blood glucose levels = conditions: insulin mixed with bile salts, through the rectum, dose of 48 μ/kg; cited from earlier work

Molecule: C[C@H](CCC(=O)[O-])[C@H]1CC[C@H]2[C@@H]3[C@H](O)C[C@@H]4C[C@H](O)CC[C@]4(C)[C@H]3C[C@H](O)[C@]12C.[Na+] [sodium cholate]
- function as bile acid carrier of the insulin and protease inhibitor agent [1]: can simultaneously function both as the bile acid carrier of the insulin and the protease inhibitor agent

Molecule: Insulin
- Glucose (diabetic dog; 0 min): 28.7 mm
- Glucose (diabetic dog; 10 min): 23.3 mm
- Glucose (diabetic dog; 20 min): 21.5 mm
- Glucose (diabetic dog; 30 min): 19.9 mm
- Glucose (diabetic dog; 45 min): 15.6 mm
- Glucose (diabetic dog; 60 min): 12.9 mm
- Glucose (diabetic dog; 75 min): 10.9 mm
- Glucose (diabetic dog; 90 min): 8.5 mm
- Glucose (diabetic dog; 120 min): 6.5 mm
- Glucose (diabetic dog; 150 min): 6.4 mm
- Glucose (diabetic dog; 180 min): 6.5 mm
- reduction of blood glucose levels (blood glucose levels): approximately 50%
